Data from patent US12383545B1, “Treatment of migraine” (priority 2018, dated 2025).

Assays:
[1] = test system: participants with episodic migraine; assay: Study B: HIT-6 total score and responder rates; assay type: in vivo, human; set-up: key to Change from Baseline in HIT-6 Total Score, LS Mean Δ from baseline: points on HIT-6 total score (range 36–78); negative = improvement; conditions: for HIT-6 total score, LS mean change (95% confidence interval) / proportion of HIT-6 responders (≥5 points from baseline): Study B, 60 mg QD; for Change from Baseline in HIT-6 Total Score, LS Mean Δ from baseline / HIT-6 Total Score Responder Rates, % Responder: atogepant 60 mg; for Change from Baseline in HIT-6 Total Score, LS Mean Δ from baseline: mITT Population; for HIT-6 Total Score Responder Rates, % Responder: responder = ≥5 point improvement from baseline
Description: In embodiments, the present disclosure provides a method for preventing migraine (such as a method for preventing migraine in patients having fewer than fifteen migraine days per month) wherein atogepant is administered in an amount of 10 mg QD, 30 mg QD, or 60 mg QD, wherein administration of atogepant results in a reduction in a 6-item Headache Impact Test (HIT-6) disability score relative to baseline. The Headache Impact Test (HIT-6) is a well-known tool for assessing migraine intensity, and uses six questions to measure the adverse impact of headache on, for example, social functioning, role functioning, vitality, cognitive functioning, and psychological distress. Responses are based on frequency using a 5-point verbal response scale ranging from “never” to “always”. The HIT-6 total score is the sum of the responses, and ranges from 36 to 78. See Yang et al., Validation of the Headache Impact Test (HIT-6™) Across Episodic and Chronic Migraine, Cephalalgia 2011 February; 31 (3): 357-367. In embodiments, treatment with atogepant results in a greater than five (≥5) point decrease in HIT-6 disability score.
The proportion of HIT-6 responders (≥5 points from baseline) were 59.92% and 80.77% of participants in the first (week 4) and last (week 52) timepoints assessed, respectively. A responder on the HIT-6 was defined as a participant with a ≥5 point improvement from baseline.

[2] = test system: participants with episodic migraine; assay: Study A: Migraine-Specific Quality of Life Questionnaire (MSQ v2.1) domain scores; assay type: in vivo, human; set-up: key to MSQ v2.1 Role Function Restrictive domain score, Week 12, mean (SD) / MSQ v2.1 Role Function Restrictive domain score, change from baseline, mean (SD) / MSQ v2.1 Role Function Restrictive domain score, MMRM LS mean change (SE): 0–100 scale, higher = better quality of life; conditions: for MSQ v2.1 Role Function Restrictive domain score, Week 12, mean (SD): mITT; for MSQ v2.1 Role Function Restrictive domain score, MMRM LS mean change (SE) / MSQ v2.1 Role Function Restrictive domain score, change from baseline, mean (SD): week 12, mITT; for MSQ v2.1 EF domain, improvement vs placebo / MSQ v2.1 RFP domain, improvement vs placebo: week 12
Description: The Migraine-Specific Quality of Life Questionnaire Version 2.1 is one of the most frequently utilized disease-specific tools assessing the impact of migraine on HRQL. The MSQ is a validated tool that assess the impact of migraine on function (i.e., daily social and work-related activities) over the past 4 weeks across three dimensions: Role Function-Restrictive (RR, or “RFR”, relating to how migraines limit the patient's daily social and work related activities), Role Function-Preventive (RP, e.g., how migraines prevent the patient's daily social and work related activities), and Emotional Function (EF, e.g., the emotions associated with a patient's migraines). Patients respond to items using a 6-point scale: “none of the time,” “a little bit of the time,” “some of the time”, “a good bit of the time,” “most of the time” and “all of the time,” which are assigned scores of 1 to 6, respectively. Raw dimension scores are computed as a sum of item responses and rescaled from a 0 to 100 scale such that higher scores indicate better quality of life. See Bagley et al., Validating Migraine-Specific Quality of Life Questionnaire v2.1 in Episodic and Chronic Migraine, Headache, 2012 March; 52 (3): 409-21.
The primary efficacy endpoint was change from baseline in mean monthly migraine days across the 12-week treatment period. Secondary efficacy endpoints, tested in hierarchical order, were change from baseline in mean monthly headache days across the 12-week treatment period, change from baseline in mean monthly acute medication use days across the 12 week treatment period, ≥50% reduction in 3-month average of monthly migraine days, change from baseline in MSQ v 2.1 Role Function-Restrictive domain score at week 12, change from baseline in mean monthly Performance of Daily Activities domain score of the AIM-D across the 12-week treatment period, and change from baseline in mean monthly Physical Impairment domain score of the AIM-D across the 12-week treatment period. An exploratory analysis of the time course of efficacy for atogepant by 4-week intervals, based on the least square mean change from baseline for the number of monthly migraine days over the 12-week treatment period was also conducted.
A secondary endpoint measured the change from baseline in MSQ v2.1 Role Function Restrictive Domain Score at Week 12. The Migraine-Specific Quality of Life Questionnaire Version 2.1 is one of the most frequently utilized disease-specific tools assessing the impact of migraine on HRQL. The MSQ measures the impact of migraine on the patient's HRQL over the past 4 weeks across three dimensions: Role Function-Restrictive (RR), Role Function-Preventive (RP), and Emotional Function (EF).

C[C@@H]1[C@H](c2c(F)ccc(F)c2F)C[C@H](NC(=O)c2cnc3c(c2)C[C@@]2(C3)C(=O)Nc3ncccc32)C(=O)N1CC(F)(F)F [atogepant]
HIT-6 total score, LS mean change (95% confidence interval) ([1]; week 4): −7.63 | proportion of HIT-6 responders (≥5 points from baseline) ([1]; week 4): 59.92% | HIT-6 total score, LS mean change (95% confidence interval) ([1]; week 52): −12.10 | proportion of HIT-6 responders (≥5 points from baseline) ([1]; week 52): 80.77% | Change from Baseline in HIT-6 Total Score, LS Mean Δ from baseline ([1]; Week 4): −7.63 | HIT-6 Total Score Responder Rates, % Responder ([1]; Week 4): 59.92% | Change from Baseline in HIT-6 Total Score, LS Mean Δ from baseline ([1]; Week 8): −9.14 | HIT-6 Total Score Responder Rates, % Responder ([1]; Week 8): 66.60% | Change from Baseline in HIT-6 Total Score, LS Mean Δ from baseline ([1]; Week 12): −6.60 | HIT-6 Total Score Responder Rates, % Responder ([1]; Week 12): 69.21% | Change from Baseline in HIT-6 Total Score, LS Mean Δ from baseline ([1]; Week 16): −10.15 | HIT-6 Total Score Responder Rates, % Responder ([1]; Week 16): 71.65% | Change from Baseline in HIT-6 Total Score, LS Mean Δ from baseline ([1]; Week 20): −10.56 | HIT-6 Total Score Responder Rates, % Responder ([1]; Week 20): 73.98% | Change from Baseline in HIT-6 Total Score, LS Mean Δ from baseline ([1]; Week 24): −10.55 | HIT-6 Total Score Responder Rates, % Responder ([1]; Week 24): 74.00% | Change from Baseline in HIT-6 Total Score, LS Mean Δ from baseline ([1]; Week 28): −10.99 | HIT-6 Total Score Responder Rates, % Responder ([1]; Week 28): 76.56% | Change from Baseline in HIT-6 Total Score, LS Mean Δ from baseline ([1]; Week 32): −11.15 | HIT-6 Total Score Responder Rates, % Responder ([1]; Week 32): 77.89% | Change from Baseline in HIT-6 Total Score, LS Mean Δ from baseline ([1]; Week 36): −11.29 | HIT-6 Total Score Responder Rates, % Responder ([1]; Week 36): 75.62% | Change from Baseline in HIT-6 Total Score, LS Mean Δ from baseline ([1]; Week 40): −11.76 | HIT-6 Total Score Responder Rates, % Responder ([1]; Week 40): 80.71% | Change from Baseline in HIT-6 Total Score, LS Mean Δ from baseline ([1]; Week 44): −11.46 | HIT-6 Total Score Responder Rates, % Responder ([1]; Week 44): 78.39% | Change from Baseline in HIT-6 Total Score, LS Mean Δ from baseline ([1]; Week 48): −11.86 | HIT-6 Total Score Responder Rates, % Responder ([1]; Week 48): 80.11% | Change from Baseline in HIT-6 Total Score, LS Mean Δ from baseline ([1]; Week 52): −12.10 | HIT-6 Total Score Responder Rates, % Responder ([1]; Week 52): 80.77% | MSQ v2.1 RFR domain score, LSMD vs. placebo (95% CI) ([2]; 10 mg QD (symbol *), week 4, FIG. 11): 8.6 | MSQ v2.1 RFR domain score, LSMD vs. placebo (95% CI) ([2]; 10 mg QD (symbol *), week 8, FIG. 11): 11.3 | MSQ v2.1 RFR domain score, LSMD vs. placebo (95% CI) ([2]; 10 mg QD, Week 12): 9.9 | MSQ v2.1 Role Function Restrictive domain score, Week 12, mean (SD) ([2]; 10 mg QD): 75.6 | MSQ v2.1 RFR domain score, LSMD vs. placebo (95% CI) ([2]; 10 mg QD, week 12, listed as Atogepant): 9.90 | MSQ v2.1 Role Function Restrictive domain score, MMRM LS mean change (SE) ([2]; 10 mg QD): 30.35 | MSQ v2.1 Role Function Restrictive domain score, change from baseline, mean (SD) ([2]; 10 mg QD): 30.8 | MSQ v2.1 EF domain, improvement vs placebo ([2]; 10 mg): 8.3 | MSQ v2.1 RFP domain, improvement vs placebo ([2]; 10 mg): 5.8 | MSQ v2.1 RFR domain score, LSMD vs. placebo (95% CI) ([2]; 30 mg QD (symbol †), week 4, FIG. 11): 11.2 | MSQ v2.1 RFR domain score, LSMD vs. placebo (95% CI) ([2]; 30 mg QD (symbol †), week 8, FIG. 11): 9.9 | MSQ v2.1 RFR domain score, LSMD vs. placebo (95% CI) ([2]; 30 mg QD, Week 12): 10.1 | MSQ v2.1 Role Function Restrictive domain score, Week 12, mean (SD) ([2]; 30 mg QD): 75.4 | MSQ v2.1 RFR domain score, LSMD vs. placebo (95% CI) ([2]; 30 mg QD, week 12, listed as Atogepant): 10.08 | MSQ v2.1 Role Function Restrictive domain score, MMRM LS mean change (SE) ([2]; 30 mg QD): 30.53 | MSQ v2.1 Role Function Restrictive domain score, change from baseline, mean (SD) ([2]; 30 mg QD): 31.1 | MSQ v2.1 EF domain, improvement vs placebo ([2]; 30 mg): 9.7 | MSQ v2.1 RFP domain, improvement vs placebo ([2]; 30 mg): 6.9 | MSQ v2.1 RFR domain score, LSMD vs. placebo (95% CI) ([2]; 60 mg QD (symbol ‡), week 4, FIG. 11): 12.3 | MSQ v2.1 RFR domain score, LSMD vs. placebo (95% CI) ([2]; 60 mg QD (symbol ‡), week 8, FIG. 11): 10.8 | MSQ v2.1 RFR domain score, LSMD vs. placebo (95% CI) ([2]; 60 mg QD, Week 12): 10.8 | MSQ v2.1 Role Function Restrictive domain score, Week 12, mean (SD) ([2]; 60 mg QD): 78.0 | MSQ v2.1 RFR domain score, LSMD vs. placebo (95% CI) ([2]; 60 mg QD, week 12, listed as Atogepant): 10.80 | MSQ v2.1 Role Function Restrictive domain score, MMRM LS mean change (SE) ([2]; 60 mg QD): 31.25 | MSQ v2.1 Role Function Restrictive domain score, change from baseline, mean (SD) ([2]; 60 mg QD): 30.5 | MSQ v2.1 EF domain, improvement vs placebo ([2]; 60 mg): 10.5 | MSQ v2.1 RFP domain, improvement vs placebo ([2]; 60 mg): 7.1
